Results published in patent publication EP0343830A2, “Ring-substituted 2-amino-1,2,3,4-tetrahydronaphthalenes” (ELI LILLY AND COMPANY, priority 1988, dated 1989).
Structures can show the parent of a compound that is named as a salt.

What follows are compounds tested against T1, 5HT UPTAKE (Rattus norvegicus, UniProt P31652) (assay: Inhibition of synaptosomal uptake of 3H-serotonin (3H-5HT) in vitro, rat cerebral cortex synaptosomes). Conditions: concentration needed to inhibit the uptake of 3H-5HT by 50%; rat cortical synaptosomes, 37°C, 5 min, 50 nM 3H-5HT.
T1 construct: Crude synaptosomal preparations were isolated after differential centrifugation; from tissue; host or cells: rat cerebral cortex, crude synaptosomes
T1 sequence (P31652 whole entry): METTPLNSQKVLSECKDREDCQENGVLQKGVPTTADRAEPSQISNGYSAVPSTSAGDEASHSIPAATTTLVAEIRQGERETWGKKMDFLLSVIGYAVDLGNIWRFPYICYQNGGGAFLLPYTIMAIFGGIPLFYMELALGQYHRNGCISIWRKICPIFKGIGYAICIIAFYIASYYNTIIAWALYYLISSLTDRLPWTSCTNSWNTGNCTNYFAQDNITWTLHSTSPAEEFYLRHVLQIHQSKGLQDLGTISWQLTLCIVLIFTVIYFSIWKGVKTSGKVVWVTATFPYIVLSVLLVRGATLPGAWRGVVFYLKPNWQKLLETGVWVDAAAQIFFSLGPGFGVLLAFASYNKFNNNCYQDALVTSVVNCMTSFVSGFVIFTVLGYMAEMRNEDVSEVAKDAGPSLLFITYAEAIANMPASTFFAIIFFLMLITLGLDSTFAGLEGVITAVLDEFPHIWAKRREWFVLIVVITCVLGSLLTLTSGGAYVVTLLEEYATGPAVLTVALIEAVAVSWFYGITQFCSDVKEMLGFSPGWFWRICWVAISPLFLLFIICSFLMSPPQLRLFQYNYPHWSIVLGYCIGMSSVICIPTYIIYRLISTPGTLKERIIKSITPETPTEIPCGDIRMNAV
Format: biochemical, Sprague-Dawley rats
Protocol: This general procedure is set forth in Wong et al., Drug Development Research 6:397-403 (1985).
Male Sprague-Dawley rats (110-150 g) from Harlan Industries (Cumberland, IN) were fed Purina Chow ad libitum for at least 3 days before being used in the studies. Rats were killed by decaptiation. Whole brains were removed and dissected. Cerebral cortex was homogenized in 9 volumes of a medium containing 0.32 M sucrose and 10 mM glucose. Crude synaptosomal preparations were isolated after differential centrifugation at 1,000 g for 10 min. and 17,000 g for 28 min. The final pellets were suspended in the same medium and kept in ice until use within the same day.
Synaptosomal uptake of ³H-serotonin (³H-5-hydroxytryptamine, ³H-5HT) was determined as follows: Cortical synaptosomes (equivalent to 1 mg of protein) were incubated at 37°C for 5 min in 1 ml of Krebs-bicarbonate medium containing also 10 mM glucose, […], 1 mM ascorbic acid, 0.17 mM EDTA and 50 nM ³H-5HT. The reaction mixture was immediately diluted with 2 ml of ice-chilled Krebs-bicarbonate buffer and filtered under vacuum with a cell harvester (Brandel, Gaithersburg, MD). Filters were rinsed twice with approximately 5 ml of ice-chilled 0.9% saline and were transferred to a counting vial containing 10 ml of scintillation fluid (PCS, Amersham, Arlington Heights, IL). Radioactivity was measured by a liquid scintillation spectrophotometer. Accumulation of ³H-5HT at 4°C represented the background and was subtracted from all samples.
The results of the evaluation of various compounds of the present invention are set forth below in Table I. In Table I, the first column provides the Example Number of the compound evaluated; the next 7 columns identify the structure of the compound evaluated when taken with the formula set forth in the heading; the next-succeeding column identifies the salt form of the compound evaluated; and the final column provides the amount of the test compound expressed in nanomolar concentration needed to inhibit the uptake of ³H-5HT by 50%, and is indicated in Table I as IC₅₀. Numbers in parentheses, if any, represent percent inhibition at 1000 nM.

Point of comparison: `CC1c2c(Cl)cccc2CCC1N1CCN(C)CC1` (stereo not shown) [Example 11, 1-Methyl-2-(N-methylpiperazinyl)-8-chloro-1,2,3,4-tetrahydronaphthalene dimaleate], IC50 650 nM. Against it:
- C[C@@H]1c2ccc(Cl)cc2CC[C@@H]1N1CCNCC1 (racemic) [Example 33, cis-1-Methyl-2-piperazinyl-6-chloro-1,2,3,4-tetrahydronaphthalene dihydrochloride] — 54-fold lower, 12 nM
- COc1ccc(Br)c2c1C(C)C(N1CCNCC1)CC2 (single isomer, unassigned) [Example 19, 1-Methyl-2-piperazinyl-5-bromo-8-methoxy-1,2,3,4-tetrahydronaphthalene dihydrochloride] — 9.3-fold lower, 70 nM
- C[C@@H]1c2ccc(Cl)cc2CC[C@@H]1N1CCNCC1 (single isomer, unassigned; (+)) [Example 33a, (+)cis-1-Methyl-2-piperazinyl-6-chloro-1,2,3,4-tetrahydronaphthalene dihydrochloride dihydrate] — 7.7-fold lower, 84 nM
- C[C@@H]1c2ccc(Cl)cc2CC[C@@H]1N1CCNCC1 (single isomer, unassigned; (-)) [Example 33b, (-)cis-1-Methyl-2-piperazinyl-6-chloro-1,2,3,4-tetrahydronaphthalene dihydrochloride dihydrate] — 79-fold lower, 8.2 nM
- COc1cccc2c1CC(N1CCN(C)CC1)CC2 (stereo not shown) [Example 1, 2-(Methylpiperazinyl)-8-methoxy-1,2,3,4-tetrahydronaphthalene dihydrochloride] — 11-fold lower, 57 nM
- COc1cccc2c1CC(N1CCNCC1)CC2 (stereo not shown) [Example 2, 2-Piperazinyl-8-methoxy-1,2,3,4-tetrahydronaphthalene dihydrochloride] — 7.2-fold lower, 90 nM
- Clc1cccc2c1CC(N1CCNCC1)CC2 (stereo not shown) [Example 3, 2-Piperazinyl-8-chloro-1,2,3,4-tetrahydronaphthalene dimaleate] — 7.8-fold lower, 83 nM
- CN1CCN(C2CCc3cccc(Cl)c3C2)CC1 (stereo not shown) [Example 4, 2-(N-methylpiperazinyl)-8-chloro-1,2,3,4-tetrahydronaphthalene dimaleate] — 19-fold lower, 35 nM
- Clc1cccc2c1CC(N1CCCNCC1)CC2 (stereo not shown) [Example 5, 2-(Homopiperazinyl)-8-chloro-1,2,3,4-tetrahydronaphthalene dimaleate] — 2.5-fold lower, 260 nM
- CN1CCN(C2CCc3cccc(F)c3C2)CC1 (stereo not shown) [Example 6, 2-(N-methylpiperazinyl)-8-fluoro-1,2,3,4-tetrahydronaphthalene dimaleate] — 3.6-fold lower, 180 nM
- Cc1cccc2c1CC(N1CCN(C)CC1)CC2 (stereo not shown) [Example 7, 2-(N-Methylpiperazinyl)-8-methyl-1,2,3,4-tetrahydronaphthalene dihydrochloride] — 7.5-fold lower, 87 nM
- Cc1ccc(C)c2c1CCC(N1CCN(C)CC1)C2 (stereo not shown) [Example 8, 2-(N-Methylpiperazinyl)-5,8-dimethyl-1,2,3,4-tetrahydronaphthalene dimaleate] — 4.6-fold lower, 140 nM
- CN1CCN(C2CCc3cccc(Br)c3C2)CC1 (stereo not shown) [Example 9, 2-(N-Methylpiperazinyl)-8-bromo-1,2,3,4-tetrahydronaphthalene dimaleate] — 7.2-fold lower, 90 nM
- COc1ccc(OC)c2c1CCC(N1CCN(C)CC1)C2 (stereo not shown) [Example 10, 2-(N-methylpiperazinyl)-5,8-dimethoxy-1,2,3,4-tetrahydronaphthalene dihydrochloride] — 6.5-fold lower, 100 nM
- CC1c2c(Cl)cccc2CCC1N1CCNCC1 (stereo not shown) [Example 12, 1-Methyl-2-piperazinyl-8-chloro-1,2,3,4-tetrahydronaphthalene dihydrochloride] — 2.4-fold lower, 270 nM
- CN1CCN(C2CCc3cccc(O)c3C2)CC1 (stereo not shown) [Example 14, 2-(N-Methylpiperazinyl)-8-hydroxy-1,2,3,4-tetrahydronaphthalene dihydrobromide] — 13-fold lower, 50 nM
- COc1ccc(Br)c2c1CC(N1CCN(C)CC1)CC2 (stereo not shown) [Example 15, 2-(N-Methylpiperazinyl)-5-bromo-8-methoxy-1,2,3,4-tetrahydronaphthalene dihydrochloride] — 54-fold lower, 12 nM
- COc1ccc(Br)c2c1CC(N1CCNCC1)CC2 (stereo not shown) [Example 16, 2-Piperazinyl-5-bromo-8-methoxy-1,2,3,4-tetrahydronaphthalene dihydrochloride] — 180-fold lower, 3.7 nM
- Cc1ccc(Br)c2c1CC(N1CCN(C)CC1)CC2 (stereo not shown) [Example 17, 2-(N-methylpiperazinyl)-5-bromo-8-methyl-1,2,3,4-tetrahydronaphthalene dihydrochloride] — 38-fold lower, 17 nM
- CSc1cccc2c1CC(N1CCN(C)CC1)CC2 (stereo not shown) [Example 18, 2-(N-methylpiperazinyl)-8-methylthio-1,2,3,4-tetrahydronaphthalene dimaleate] — 16-fold lower, 40 nM
- COc1ccc(Cl)c2c1CC(N1CCN(C)CC1)CC2 (stereo not shown) [Example 21, 2-(N-methylpiperazinyl)-5-chloro-8-methoxy-1,2,3,4-tetrahydronaphthalene dihydrochloride] — 41-fold lower, 16 nM
- COc1ccc(I)c2c1CC(N1CCN(C)CC1)CC2 (stereo not shown) [Example 22, 2-(N-methylpiperazinyl)-5-iodo-8-methoxy-1,2,3,4-tetrahydronaphthalene dihydrochloride] — 28-fold lower, 23 nM
- COc1ccc(C=O)c2c1CC(N1CCN(C)CC1)CC2 (stereo not shown) [Example 23, 2-(N-methylpiperazinyl)-5-formyl-8-methoxy-1,2,3,4-tetrahydronaphthalene dihydrochloride hydrate] — 65-fold lower, 10 nM
- COc1ccc(C#N)c2c1CC(N1CCN(C)CC1)CC2 (stereo not shown) [Example 24, 2-(N-methylpiperazinyl)-5-cyano-8-methoxy-1,2,3,4-tetrahydronaphthalene dihydrochloride] — 54-fold lower, 12 nM
- Clc1ccc2c(c1)CCC(N1CCNCC1)C2 (stereo not shown) [Example 25, 2-Piperazinyl-6-chloro-1,2,3,4-tetrahydronaphthalene dihydrochloride] — 6.5-fold lower, 100 nM
- Brc1ccc2c(c1)CCC(N1CCNCC1)C2 (stereo not shown) [Example 26, 2-Piperazinyl-6-bromo-1,2,3,4-tetrahydronaphthalene dihydrochloride] — 1.9-fold lower, 350 nM
- Fc1ccc2c(c1)CCC(N1CCNCC1)C2 (stereo not shown) [Example 27, 2-Piperazinyl-6-fluoro-1,2,3,4-tetrahydronaphthalene dihydrochloride] — 1.9-fold lower, 340 nM
- Cc1ccc2c(c1)CCC(N1CCNCC1)C2 (stereo not shown) [Example 28, 2-Piperazinyl-6-methyl-1,2,3,4-tetrahydronaphthalene dihydrochloride] — 3.1-fold lower, 210 nM
- COc1ccc2c(c1)CCC(N1CCNCC1)C2 (stereo not shown) [Example 29, 2-Piperazinyl-6-methoxy-1,2,3,4-tetrahydronaphthalene dihydrochloride] — within 1.5-fold, 750 nM
- Clc1cc2c(cc1Cl)CC(N1CCNCC1)CC2 (stereo not shown) [Example 30, 2-Piperazinyl-6,7-dichloro-1,2,3,4-tetrahydronaphthalene dihydrochloride] — 5.7-fold lower, 115 nM
- CN1CCN(C2CCc3cc(Br)ccc3C2)CC1 (stereo not shown) [Example 31, 2-(N-Methylpiperazinyl)-6-bromo-1,2,3,4-tetrahydronaphthalene dihydrochloride] — within 1.5-fold, 520 nM
- CN1CCN(C2CCc3cc(Cl)ccc3C2)CC1 (stereo not shown) [Example 32, 2-(N-Methylpiperazinyl)-6-chloro-1,2,3,4-tetrahydronaphthalene dihydrochloride] — within 1.5-fold, 450 nM
- CC1c2ccccc2CCC1N1CCNCC1 (stereo not shown) [Example 34, 1-Methyl-2-piperazinyl-1,2,3,4-tetrahydronaphthalene dihydrochloride] — 11-fold lower, 59 nM
- CC1c2ccccc2CCC1N1CCN(C)CC1 (stereo not shown) [Example 35, 1-Methyl-2-(N-methylpiperazinyl-1,2,3,4-tetrahydronaphthalenedihydrochloride] — within 1.5-fold, 490 nM
- Clc1ccc2c(c1)CCC(N1CCCNCC1)C2 (stereo not shown) [Example 36, 2-Homopiperazinyl-6-chloro-1,2,3,4-tetrahydronaphthalene dihydrochloride] — 2.7-fold lower, 240 nM
- Oc1ccc2c(c1)CCC(N1CCNCC1)C2 (stereo not shown) [Example 37, 2-Piperazinyl-6-hydroxy-1,2,3,4-tetrahydronaphthalene dihydrobromide] — 1.5-fold higher, 1000 nM
- COc1ccc(C(F)F)c2c1CC(N1CCN(C)CC1)CC2 (stereo not shown) [Example 38, 2-(N-Methylpiperazinyl)-5-difluoromethyl-8-methoxy-1,2,3,4-tetrahydronaphthalene dimaleate] — 28-fold lower, 23 nM
- CSc1ccc2c(c1)CCC(N1CCN(C)CC1)C2 (stereo not shown) [Example 39, 2-(N-Methylpiperizinyl)-6-methylthio-1,2,3,4-tetrahydronaphthalene dihydrochloride] — within 1.5-fold, 434 nM
- CC1c2ccc(Br)cc2CCC1N1CCNCC1 (stereo not shown) [Example 40, 1-Methyl-2-piperazinyl-6-bromo-1,2,3,4-tetrahydronaphthalene dihydrochloride] — 19-fold lower, 34 nM
